From ChEMBL document CHEMBL1152243, “Preliminary SAR studies on non-apamin-displacing 4-(aminomethylaryl)pyrrazolopyrimidine K(Ca) channel blockers” (Bioorg Med Chem Lett, 2008)
Active and inactive are the calls of the source. The rule behind the calls is not given here.

What was measured:
Format in all cases: cell-based
[1] = molecular target: T1, Small conductance calcium-activated potassium channel protein 3 (Homo sapiens, UniProt Q9UGI6); assay: Inhibition of Kca2.3 channel expressed in HEK293 cells by thallium flux assay
T1 sequence (Q9UGI6 whole entry): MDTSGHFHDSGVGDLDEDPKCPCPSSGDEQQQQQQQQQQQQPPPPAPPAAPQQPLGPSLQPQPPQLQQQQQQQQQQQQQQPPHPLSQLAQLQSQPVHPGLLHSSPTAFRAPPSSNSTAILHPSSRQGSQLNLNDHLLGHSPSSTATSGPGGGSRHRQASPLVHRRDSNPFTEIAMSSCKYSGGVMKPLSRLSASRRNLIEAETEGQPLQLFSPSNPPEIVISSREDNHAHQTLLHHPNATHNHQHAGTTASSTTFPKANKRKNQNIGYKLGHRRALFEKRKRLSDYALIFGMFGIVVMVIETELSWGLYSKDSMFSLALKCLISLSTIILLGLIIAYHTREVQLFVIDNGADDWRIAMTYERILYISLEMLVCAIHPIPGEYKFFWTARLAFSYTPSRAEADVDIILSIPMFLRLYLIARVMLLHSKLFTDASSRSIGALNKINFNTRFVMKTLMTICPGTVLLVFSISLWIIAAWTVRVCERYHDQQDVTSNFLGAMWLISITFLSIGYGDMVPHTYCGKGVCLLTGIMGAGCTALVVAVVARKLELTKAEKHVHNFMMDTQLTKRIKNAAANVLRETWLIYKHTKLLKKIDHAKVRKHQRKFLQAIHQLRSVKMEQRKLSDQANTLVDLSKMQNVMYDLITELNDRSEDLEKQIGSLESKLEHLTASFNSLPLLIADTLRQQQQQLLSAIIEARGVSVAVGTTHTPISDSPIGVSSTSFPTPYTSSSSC

[2] = molecular target: T1, Small conductance calcium-activated potassium channel protein 3; assay: Inhibition of Kca2.3 channel expressed in HEK293 cells at 30 uM by thallium flux assay
[3] = molecular target: Small conductance calcium-activated potassium channel protein 1 (Homo sapiens, UniProt Q92952); assay: Inhibition of Kca2.1 channel expressed in HEK293 cells by thallium flux assay
Chain of Small conductance calcium-activated potassium channel protein 1 (Q92952 whole entry): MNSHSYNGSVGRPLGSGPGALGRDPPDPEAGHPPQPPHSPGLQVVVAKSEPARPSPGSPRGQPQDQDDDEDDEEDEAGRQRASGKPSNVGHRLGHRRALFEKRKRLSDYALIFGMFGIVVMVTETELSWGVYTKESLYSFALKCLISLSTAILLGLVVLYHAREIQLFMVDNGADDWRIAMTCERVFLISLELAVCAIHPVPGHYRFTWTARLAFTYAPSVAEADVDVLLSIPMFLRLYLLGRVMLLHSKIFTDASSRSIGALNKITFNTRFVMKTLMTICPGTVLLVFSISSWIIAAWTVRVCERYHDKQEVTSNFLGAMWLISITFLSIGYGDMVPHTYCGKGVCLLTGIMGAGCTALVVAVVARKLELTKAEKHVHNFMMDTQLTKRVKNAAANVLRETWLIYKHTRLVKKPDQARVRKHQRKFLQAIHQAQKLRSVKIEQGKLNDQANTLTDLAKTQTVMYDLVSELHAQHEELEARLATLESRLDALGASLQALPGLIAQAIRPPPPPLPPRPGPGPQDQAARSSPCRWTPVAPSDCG

[4] = molecular target: T1, Small conductance calcium-activated potassium channel protein 3; assay: Inhibition of Kca2.3 channel expressed in HEK293 cells by electrophysiology assay
[5] = molecular target: Small conductance calcium-activated potassium channel protein 2 (Homo sapiens, UniProt Q9H2S1); assay: Inhibition of Kca2.2 channel expressed in HEK293 cells by thallium flux assay
Chain of Small conductance calcium-activated potassium channel protein 2 (Q9H2S1 whole entry): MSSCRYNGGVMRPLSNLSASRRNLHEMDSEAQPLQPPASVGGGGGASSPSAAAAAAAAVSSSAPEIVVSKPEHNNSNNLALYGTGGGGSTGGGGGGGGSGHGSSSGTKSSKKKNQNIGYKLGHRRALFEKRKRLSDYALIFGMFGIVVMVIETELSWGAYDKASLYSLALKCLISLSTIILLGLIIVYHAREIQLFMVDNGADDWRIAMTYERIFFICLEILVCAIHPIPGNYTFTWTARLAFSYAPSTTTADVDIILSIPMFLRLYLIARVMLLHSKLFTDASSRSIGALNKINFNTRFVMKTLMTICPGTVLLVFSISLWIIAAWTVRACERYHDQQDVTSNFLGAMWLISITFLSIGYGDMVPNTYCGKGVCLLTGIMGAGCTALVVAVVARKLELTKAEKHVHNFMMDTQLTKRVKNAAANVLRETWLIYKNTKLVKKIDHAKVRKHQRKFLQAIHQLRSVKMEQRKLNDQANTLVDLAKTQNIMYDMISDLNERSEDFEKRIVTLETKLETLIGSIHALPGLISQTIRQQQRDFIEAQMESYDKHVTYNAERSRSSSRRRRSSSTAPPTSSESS

[6] = molecular target: T1, Small conductance calcium-activated potassium channel protein 3; assay: Displacement of [125I]apamin from Kca2.3 channel expressed in HEK293 cells by scintillation proximity assay

| SMILES | IC50 [1] | inhibition [2] | other results |
| --- | --- | --- | --- |
| FC(F)(F)c1ccccc1CNc1cc(Cl)nc2ccnn12 | > 30 µM | 50% | – |
| FC(F)(F)c1ccc(CNc2cc(Cl)nc3ccnn23)cc1 | > 30 µM | 43% | – |
| O=[N+]([O-])c1ccc(CNc2cc(Cl)nc3ccnn23)cc1 | > 30 µM | 25% | – |
| Clc1cc(NCc2ccccc2)n2nccc2n1 | 1.1 µM | 113% | IC50 [3]: 1.19 µM; IC50 [4]: 1.6 µM; IC50 [5]: 1.1 µM |
| Clc1cc(NCc2ccccc2Cl)n2nccc2n1 | 19.1 µM | 62% | – |
| FC(F)(F)c1cccc(CNc2cc(Cl)nc3ccnn23)c1 | 14.6 µM | 80% | – |
| Clc1cc(NCc2cccs2)n2nccc2n1 | 0.35 µM | 105% | IC50 [3]: 0.3 µM; IC50 [4]: 0.58 µM; IC50 [5]: 0.53 µM; Activity [6]: inactive |
| Clc1ccc(CNc2cc(Cl)nc3ccnn23)cc1 | > 30 µM | 30% | – |
| Clc1cc(NC(Cc2ccccc2)c2ccccc2)n2nccc2n1 (stereo unspecified) | 7.5 µM | – | – |
| Cc1cccc(CNc2cc(Cl)nc3ccnn23)c1 | 10.7 µM | 91% | – |
| Clc1cccc(CNc2cc(Cl)nc3ccnn23)c1 | 5.2 µM | 113% | – |
| Cc1ccccc1CNc1cc(Cl)nc2ccnn12 | 14.6 µM | 75% | – |
| Clc1cc(NCc2ccc(Cl)c(Cl)c2)n2nccc2n1 | > 30 µM | 25% | – |
| Cc1ccc(CNc2cc(Cl)nc3ccnn23)cc1 | > 30 µM | 46% | – |
| COc1ccccc1CNc1cc(Cl)nc2ccnn12 | 15.9 µM | 74% | – |
| O=[N+]([O-])c1cccc(CNc2cc(Cl)nc3ccnn23)c1 | 7.9 µM | 96% | – |
| Clc1cc(Cl)cc(CNc2cc(Cl)nc3ccnn23)c1 | > 30 µM | 43% | – |
| C[C@@H](Nc1cc(Cl)nc2ccnn12)c1ccccc1 | 1 µM | – | – |
| FC(F)(F)Oc1ccccc1CNc1cc(Cl)nc2ccnn12 | 10 µM | 87% | – |
| FC(F)(F)Oc1cccc(CNc2cc(Cl)nc3ccnn23)c1 | 11 µM | 71% | – |
| C[C@H](Nc1cc(Cl)nc2ccnn12)c1ccccc1 | – | – | Activity [1]: inactive |
| Clc1cc(NCc2ccc(Oc3ccccc3)cc2)n2nccc2n1 | > 30 µM | 23% | – |
| FC(F)(F)Oc1ccc(CNc2cc(Cl)nc3ccnn23)cc1 | 15.4 µM | 62% | – |
| Clc1cc(NCc2ccncc2)n2nccc2n1 | – | – | Activity [1]: inactive |
